System: WEHI-3 syngeneic mouse myelomonocytic leukemia-derived subcutaneous tumor
Test: WEHI-3 Study 4: mouse WEHI-3 syngeneic tumor model, individual tumor volume
Type: in vivo
Settings: Compound I-263a 7.5 mg/kg IV BIWx3
Experimental: WEHI-3 Study 4: WEHI-3 is a mouse myelomonocytic leukemia cell line. WEHI-3 mouse syngeneic tumor model was generated by subcutaneous inoculation with 0.1×10^6 WEHI-3 cells (cell suspension) in 13 weeks old female BALB/c mice (Jackson Laboratory, 600 Main St, Bar Harbor, ME) in the flank. When the mean tumor volume reached approximately 50 mm^3, the animals were randomized into one vehicle control and five treatment groups (n=8/group). Mice were then dosed with 20% HPbCD or Compound I-263a or anti-mouse PD-1 antibody or anti-mouse CTLA-4 antibody over a 21-day period. Tumor growth and body weight were measured twice per week during the treatment and post-treatment periods, and mice were humanely euthanized once they had reached their humane endpoint.
Study 4: A 1.01 mg/mL stock solution of Compound I-263a was formulated weekly in 20% HPβCD and administered intravenously (IV) based on exact animal body weight on each day of treatment, using a dosing volume of 10 mL/kg body weight. Final doses received were 7.5 mg/kg. Dosing volume for Compound I-263a was 0.2 mL. […]
Tumors were measured twice weekly using vernier calipers. Tumor volumes were calculated using standard equation: V=W^2×L/2, where V=volume, W=width, and L=length for the tumor. […] Tumor size and body weight were measured twice a week for the duration of the study. […]

**Q.** Which “effect on tumor growth” value (8 tumors/group) does the source give for Cc1sc(C(=O)c2cncnc2N[C@@H]2C[C@H](COS(N)(=O)=O)[C@@H](O)C2)cc1[C@@H]1NCCc2ccc(Cl)cc21 [Compound I-263a, [(1R,2S,4R)-4-{[5-({4-[(1R)-7-chloro-1,2,3,4-tetrahydroisoquinolin-1-yl]-5-methyl-2-thienyl}carbonyl)pyrimidin-4-yl]amino}-2-hydroxycyclopentyl]methyl sulfamate] here?
**A.** Its value is “very little effect”.

**Q.** And the “slight tumor growth delays” value (delay to day 14, out of 8 implanted tumors)?
**A.** Its value is 2.
